Assays:
[1] = biological target: Glutamate [NMDA] receptor; experiment: Tested for the inhibitory activity by the inhibition of excitatory L-[3H]Glutamate binding to NMDA recognition sites; type: protein-complex assay
[2] = biological target: Glutamate [NMDA] receptor; experiment: Tested for the inhibitory activity by the inhibition of excitatory [3H]CGS-19,755 binding to NMDA recognition sites; type: protein-complex assay
[3] = Tested for the ability to inhibit the pentylenetetrazole induced seizures against NMDA antagonist by intraperitoneal administration; type: functional; conditions: ip
[4] = Tested for the ability to inhibit the maximal electroshock induced seizures against NMDA antagonist by intraperitoneal administration; type: functional; conditions: ip
[5] = Tested for the ability to inhibit the NMDA induced seizures against NMDA antagonist by intraperitoneal administration; type: functional; conditions: ip

N[C@@H](C[C@H]1CCCC[C@H]1CCP(=O)(O)O)C(=O)O
IC50 [1]: 2590 nM
IC50 [2]: 264 nM

NC(CC1CCCCC1CCP(=O)(O)O)C(=O)O (stereo unspecified)
IC50 [1]: 1600 nM
ED50 [3]: 6.02 mg/kg
ED50 [4]: > 15 mg/kg
IC50 [2]: 976 nM
ED50 [5]: 12.4 mg/kg

N[C@H](C[C@@H]1CCCC[C@@H]1CCP(=O)(O)O)C(=O)O
IC50 [1]: 3130 nM
IC50 [2]: 555 nM

O=C(O)[C@H]1CN(CCCP(=O)(O)O)CCN1
IC50 [1]: 321 nM
IC50 [2]: 86 nM

CC(=CC(N)C(=O)O)CP(=O)(O)O (stereo unspecified) [CGP-37849]
IC50 [1]: 25.7 nM
ED50 [3]: > 10 mg/kg
ED50 [4]: 3.64 mg/kg
IC50 [2]: 18 nM
ED50 [5]: 3.41 mg/kg

N[C@@H](C[C@@H]1CCCC[C@@H]1CCP(=O)(O)O)C(=O)O
IC50 [1]: 6460 nM
IC50 [2]: 239 nM

N[C@H](C[C@H]1CCCC[C@H]1CCP(=O)(O)O)C(=O)O
IC50 [1]: 607 nM
ED50 [3]: 4.51 mg/kg
ED50 [4]: 13.4 mg/kg
IC50 [2]: 148 nM
ED50 [5]: 2.68 mg/kg

O=C(O)[C@@H]1C[C@H](CP(=O)(O)O)CCN1 (single isomer, unassigned) [SELFOTEL]
ED50 [3]: 29 mg/kg
ED50 [4]: 12.9 mg/kg
ED50 [5]: 2.64 mg/kg

Reference: ChEMBL document CHEMBL1152025, “Enzymatic asymmetric synthesis of (2R, 4R, 5S)-2-amino-4,5-(1,2-cyclohexyl)-7-phosphonoheptanoic acid, a potent, selective and competitive NMDA antagonist” (Bioorg Med Chem Lett, 1993)
